We go through 1 compound from ChEMBL document CHEMBL1137324, “Novel selective orally active CRTH2 antagonists for allergic inflammation developed from in silico derived hits” (J Med Chem, 2006).

Each structure is given as a SMILES string. The source made the active and inactive calls. No cut-off for these calls is given here.

Data set [1] can be described thus: Permeability from basolateral to apical side of Caco-2 cells. It is filed as ADME, cell-based. As to conditions: human, read-out: permeability.
For data set [2], the species on record is Homo sapiens. Nature of the data set: Stability in human liver S9 fraction. It is filed as ADME.
The nature of data set [3]: Half life in rat. Type of data set: ADME, organism-based. As to conditions: in vivo.
Data set [4] deals with Mus musculus. Nature of the data set: Inhibition of peribronchial eosinophilia in BALB/c mouse at 5 mg/kg, po relative to control. Type of data set: functional, organism-based. Details: dose 5 mg/kg.
For data set [5], the target named is Phospholipase A2 (Homo sapiens) (UniProt P04054). Nature of the data set: Inhibition of PLA2 at 10 uM.
The target of data set [6] is Polyunsaturated fatty acid lipoxygenase ALOX12 (Homo sapiens) (UniProt P18054). Nature of the data set: Inhibition of 12-LO at 10 uM.
Data set [7] concerns the target Polyunsaturated fatty acid lipoxygenase ALOX15 (Homo sapiens) (UniProt P16050). Nature of the data set: Inhibition of 15-LO at 10 uM.
Data set [8] addresses Type-1 angiotensin II receptor (Homo sapiens) (UniProt P30556). Nature of the data set: Inhibition of AT1.
In data set [9] the test system is Mus musculus. Nature of the data set: Inhibition of peribronchial eosinophilia in BALB/c mouse at 100 mg/kg, po relative to control. Type of data set: functional.
For data set [10], the system named is Mus musculus. Nature of the data set: Inhibition of peribronchial eosinophilia in BALB/c mouse at 30 mg/kg, po relative to control. Type of data set: functional.
Data set [11] addresses Adenosine receptor A2a (Homo sapiens) (UniProt P29274). Nature of the data set: Inhibition of human A2A receptor at 10 uM.
The target in data set [12] is Type-2 angiotensin II receptor (Homo sapiens) (UniProt P50052). Nature of the data set: Inhibition of human AT2 receptor at 10 uM.
Data set [13] has as its target Endothelin-1 receptor (Homo sapiens) (UniProt P25101). Nature of the data set: Inhibition of human ETA receptor at 10 uM.
Data set [14] deals with GABA-A receptor; anion channel (Homo sapiens) (UniProt P14867+P47870+P18507+P28472+P48169+Q99928+Q9UN88+P34903+O00591+O14764+Q8N1C3+P18505+P78334+P47869+P31644+Q16445). Nature of the data set: Inhibition of human GABA receptor at 10 uM. It is filed as protein-complex assay.
For data set [15], the target named is T1, Glutamate [NMDA] receptor (Homo sapiens) (UniProt Q05586+Q12879+Q13224+O15399+O60391+Q14957+Q8TCU5). Nature of the data set: Inhibition of human NMDA receptor at 10 uM. Type of data set: protein-complex assay.
The target in data set [16] is Melanin-concentrating hormone receptor 1 (Homo sapiens) (UniProt Q99705). Nature of the data set: Inhibition of human MCH1 receptor at 10 uM.
The species named for data set [17] is Homo sapiens. Nature of the data set: Inhibition of human Y receptor at 10 uM.
Data set [18] deals with Nociceptin receptor (Homo sapiens) (UniProt P41146). Nature of the data set: Inhibition of human ORL1 at 10 uM.
Data set [19] deals with T1, Glutamate [NMDA] receptor (Homo sapiens). Nature of the data set: Inhibition of human PCP receptor at 10 uM. It is filed as protein-complex assay.
The target of data set [20] is Serotonin (5-HT) receptor (Homo sapiens) (UniProt P30939+P41595+Q13639+P28222+P46098+P08908+P28221+P28223+P28335+P28566+P34969+P50406+P47898+A5X5Y0+O95264+Q70Z44+Q8WXA8). Nature of the data set: Inhibition of 5-HT receptor at 10 uM. It is filed as protein assay.
Data set [21] concerns the target Glucocorticoid receptor (Homo sapiens) (UniProt P04150). Nature of the data set: Inhibition of human glucocorticoid receptor at 10 uM.
Data set [22] has as its target Sodium-dependent noradrenaline transporter (Homo sapiens) (UniProt P23975). Nature of the data set: Inhibition of human NE transporter at 10 uM.
The target in data set [23] is Sodium-dependent serotonin transporter (Homo sapiens) (UniProt P31645). Nature of the data set: Inhibition of human 5-HT transporter at 10 uM.
Sequence of Sodium-dependent serotonin transporter (Homo sapiens) (P31645 whole entry, looked up): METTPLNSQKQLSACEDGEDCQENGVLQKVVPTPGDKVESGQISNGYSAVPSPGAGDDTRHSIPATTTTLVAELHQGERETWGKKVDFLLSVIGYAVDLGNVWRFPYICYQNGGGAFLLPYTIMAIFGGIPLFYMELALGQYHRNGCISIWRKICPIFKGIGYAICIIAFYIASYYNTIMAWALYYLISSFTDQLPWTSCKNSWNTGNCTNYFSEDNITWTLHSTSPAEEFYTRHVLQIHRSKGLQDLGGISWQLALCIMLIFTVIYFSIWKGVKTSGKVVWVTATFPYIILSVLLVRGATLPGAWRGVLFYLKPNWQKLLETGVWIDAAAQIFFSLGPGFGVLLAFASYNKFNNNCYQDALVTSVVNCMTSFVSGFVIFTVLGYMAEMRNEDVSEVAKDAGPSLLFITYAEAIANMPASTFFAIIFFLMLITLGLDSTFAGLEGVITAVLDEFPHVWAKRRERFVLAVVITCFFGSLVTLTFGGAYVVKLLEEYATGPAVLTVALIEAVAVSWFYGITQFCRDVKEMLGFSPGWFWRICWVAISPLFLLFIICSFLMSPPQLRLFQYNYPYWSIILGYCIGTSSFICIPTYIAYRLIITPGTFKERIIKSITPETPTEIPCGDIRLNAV

Sequence of Glucocorticoid receptor (Homo sapiens) (P04150 whole entry): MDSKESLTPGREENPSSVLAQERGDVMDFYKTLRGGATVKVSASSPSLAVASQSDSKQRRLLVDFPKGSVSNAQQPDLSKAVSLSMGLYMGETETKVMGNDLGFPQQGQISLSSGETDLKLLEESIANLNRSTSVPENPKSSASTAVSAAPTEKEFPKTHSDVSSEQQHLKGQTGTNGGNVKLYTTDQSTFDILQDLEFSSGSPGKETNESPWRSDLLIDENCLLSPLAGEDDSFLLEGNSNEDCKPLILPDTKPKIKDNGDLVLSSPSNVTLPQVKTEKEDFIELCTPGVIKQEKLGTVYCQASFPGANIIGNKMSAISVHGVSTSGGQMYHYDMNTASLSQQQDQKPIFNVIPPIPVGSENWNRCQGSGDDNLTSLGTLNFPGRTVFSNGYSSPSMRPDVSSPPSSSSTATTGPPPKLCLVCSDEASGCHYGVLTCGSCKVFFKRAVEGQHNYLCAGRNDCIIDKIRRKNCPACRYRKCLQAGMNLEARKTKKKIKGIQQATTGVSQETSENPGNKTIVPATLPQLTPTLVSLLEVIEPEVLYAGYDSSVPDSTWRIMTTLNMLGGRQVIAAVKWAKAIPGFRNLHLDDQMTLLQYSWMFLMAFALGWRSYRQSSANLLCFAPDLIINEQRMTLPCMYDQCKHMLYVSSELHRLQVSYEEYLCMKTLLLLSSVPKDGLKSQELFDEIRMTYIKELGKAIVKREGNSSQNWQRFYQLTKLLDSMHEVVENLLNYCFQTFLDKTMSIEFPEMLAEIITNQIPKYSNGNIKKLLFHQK
Sequence of Nociceptin receptor (Homo sapiens) (P41146 whole entry): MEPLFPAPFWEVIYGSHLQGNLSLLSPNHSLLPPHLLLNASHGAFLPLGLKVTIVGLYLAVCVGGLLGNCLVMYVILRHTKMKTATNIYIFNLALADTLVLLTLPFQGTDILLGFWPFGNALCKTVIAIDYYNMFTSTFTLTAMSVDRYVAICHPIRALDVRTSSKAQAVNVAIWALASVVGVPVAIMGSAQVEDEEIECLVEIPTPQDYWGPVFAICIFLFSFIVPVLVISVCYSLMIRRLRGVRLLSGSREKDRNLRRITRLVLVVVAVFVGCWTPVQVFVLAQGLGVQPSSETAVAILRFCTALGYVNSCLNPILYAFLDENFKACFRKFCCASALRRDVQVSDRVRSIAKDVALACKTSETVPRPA
Sequence of Type-2 angiotensin II receptor (Homo sapiens) (P50052 whole entry): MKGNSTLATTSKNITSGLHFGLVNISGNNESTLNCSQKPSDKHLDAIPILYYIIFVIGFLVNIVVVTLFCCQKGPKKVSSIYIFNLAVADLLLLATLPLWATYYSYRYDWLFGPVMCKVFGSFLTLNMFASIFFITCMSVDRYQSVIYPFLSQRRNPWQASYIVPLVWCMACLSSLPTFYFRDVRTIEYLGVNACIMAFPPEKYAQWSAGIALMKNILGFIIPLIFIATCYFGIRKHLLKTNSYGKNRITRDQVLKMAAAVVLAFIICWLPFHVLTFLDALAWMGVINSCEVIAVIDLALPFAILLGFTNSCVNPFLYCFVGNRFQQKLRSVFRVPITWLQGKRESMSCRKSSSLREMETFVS
Sequence of Sodium-dependent noradrenaline transporter (Homo sapiens) (P23975 whole entry): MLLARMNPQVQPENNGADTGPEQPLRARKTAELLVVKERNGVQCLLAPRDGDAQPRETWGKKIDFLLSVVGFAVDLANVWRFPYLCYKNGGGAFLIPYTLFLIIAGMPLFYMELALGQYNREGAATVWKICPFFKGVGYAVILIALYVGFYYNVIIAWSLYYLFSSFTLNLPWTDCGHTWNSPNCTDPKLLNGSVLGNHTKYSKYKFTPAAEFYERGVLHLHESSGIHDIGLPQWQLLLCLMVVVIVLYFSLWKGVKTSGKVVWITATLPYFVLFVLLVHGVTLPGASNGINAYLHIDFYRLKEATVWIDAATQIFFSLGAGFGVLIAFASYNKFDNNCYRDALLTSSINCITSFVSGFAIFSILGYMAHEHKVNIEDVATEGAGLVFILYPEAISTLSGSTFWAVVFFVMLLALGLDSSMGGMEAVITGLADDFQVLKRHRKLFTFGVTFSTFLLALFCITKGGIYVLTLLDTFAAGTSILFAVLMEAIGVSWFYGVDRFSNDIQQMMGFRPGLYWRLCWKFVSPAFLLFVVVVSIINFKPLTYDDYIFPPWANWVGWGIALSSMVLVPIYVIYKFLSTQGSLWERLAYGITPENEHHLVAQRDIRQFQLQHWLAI
Sequence of Type-1 angiotensin II receptor (Homo sapiens) (P30556 whole entry): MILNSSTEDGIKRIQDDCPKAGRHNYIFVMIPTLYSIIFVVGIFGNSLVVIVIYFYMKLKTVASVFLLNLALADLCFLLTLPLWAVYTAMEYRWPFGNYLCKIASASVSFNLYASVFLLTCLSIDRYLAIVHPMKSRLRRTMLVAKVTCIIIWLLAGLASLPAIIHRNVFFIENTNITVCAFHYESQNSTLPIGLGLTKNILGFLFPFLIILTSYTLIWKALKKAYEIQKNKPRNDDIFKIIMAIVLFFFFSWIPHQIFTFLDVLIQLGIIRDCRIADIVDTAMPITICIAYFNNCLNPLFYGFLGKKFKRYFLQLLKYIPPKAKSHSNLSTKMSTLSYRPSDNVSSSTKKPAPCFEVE
Sequence of Polyunsaturated fatty acid lipoxygenase ALOX15 (Homo sapiens) (P16050 whole entry): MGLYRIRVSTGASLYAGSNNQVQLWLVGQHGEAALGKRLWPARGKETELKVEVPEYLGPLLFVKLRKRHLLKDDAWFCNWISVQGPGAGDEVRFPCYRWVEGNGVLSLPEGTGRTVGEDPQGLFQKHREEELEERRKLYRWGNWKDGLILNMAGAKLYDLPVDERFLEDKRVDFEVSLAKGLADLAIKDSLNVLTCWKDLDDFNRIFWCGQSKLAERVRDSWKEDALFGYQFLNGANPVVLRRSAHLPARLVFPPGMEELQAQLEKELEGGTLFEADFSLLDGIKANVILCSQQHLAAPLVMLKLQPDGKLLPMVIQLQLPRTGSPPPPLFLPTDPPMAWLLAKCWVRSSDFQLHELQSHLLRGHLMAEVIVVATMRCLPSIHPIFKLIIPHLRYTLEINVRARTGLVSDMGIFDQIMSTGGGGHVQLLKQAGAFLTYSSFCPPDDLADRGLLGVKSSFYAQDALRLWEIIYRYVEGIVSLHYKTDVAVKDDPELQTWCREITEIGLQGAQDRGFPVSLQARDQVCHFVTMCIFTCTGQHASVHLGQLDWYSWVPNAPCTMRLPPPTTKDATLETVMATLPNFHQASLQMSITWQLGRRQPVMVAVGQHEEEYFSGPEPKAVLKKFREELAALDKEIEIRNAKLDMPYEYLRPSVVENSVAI
Sequence of Endothelin-1 receptor (Homo sapiens) (P25101 whole entry): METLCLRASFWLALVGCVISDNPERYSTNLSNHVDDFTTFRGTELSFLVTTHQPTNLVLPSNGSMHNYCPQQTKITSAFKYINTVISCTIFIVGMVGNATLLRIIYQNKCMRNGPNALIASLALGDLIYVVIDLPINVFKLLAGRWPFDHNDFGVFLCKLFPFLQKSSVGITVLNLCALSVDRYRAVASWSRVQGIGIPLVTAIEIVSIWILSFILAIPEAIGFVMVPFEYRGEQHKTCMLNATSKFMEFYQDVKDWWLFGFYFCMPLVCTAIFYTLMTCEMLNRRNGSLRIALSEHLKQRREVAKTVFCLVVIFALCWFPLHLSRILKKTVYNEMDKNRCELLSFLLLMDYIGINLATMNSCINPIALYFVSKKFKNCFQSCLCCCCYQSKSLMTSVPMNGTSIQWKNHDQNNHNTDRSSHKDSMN
Sequence of Phospholipase A2 (Homo sapiens) (P04054 23-148 limits assumed): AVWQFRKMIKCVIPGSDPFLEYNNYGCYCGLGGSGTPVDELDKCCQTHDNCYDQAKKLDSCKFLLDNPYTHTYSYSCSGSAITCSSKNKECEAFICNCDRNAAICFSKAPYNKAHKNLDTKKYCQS
Sequence of Adenosine receptor A2a (Homo sapiens) (P29274 whole entry): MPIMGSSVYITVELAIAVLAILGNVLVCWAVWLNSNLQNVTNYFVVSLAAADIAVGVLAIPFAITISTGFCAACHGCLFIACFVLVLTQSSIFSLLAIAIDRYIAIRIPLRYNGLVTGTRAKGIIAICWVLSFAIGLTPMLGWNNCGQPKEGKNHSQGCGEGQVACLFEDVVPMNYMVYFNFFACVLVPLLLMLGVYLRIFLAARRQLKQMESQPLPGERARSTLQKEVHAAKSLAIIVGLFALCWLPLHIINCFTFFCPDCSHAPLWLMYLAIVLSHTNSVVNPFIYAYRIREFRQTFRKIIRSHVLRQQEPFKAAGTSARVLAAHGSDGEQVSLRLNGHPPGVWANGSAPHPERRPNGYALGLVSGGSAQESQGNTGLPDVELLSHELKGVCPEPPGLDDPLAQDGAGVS

The term half-life denotes how long it takes for the measured level to halve. The inhibition is the drop in the measured response relative to a control, in per cent. The low end stands for little suppression, the high end for strong suppression. Broadly, the inhibition in vivo is the share of the control response that was lost under treatment. A lower inhibition in vivo goes with little suppression. `O=C(O)COc1ccc(Br)cc1C(=O)c1cnn(-c2ccccc2)c1`: the Papp B→A in data set [1] is 13 ×10⁻⁶ cm/s. This compound came in with a Stability in the data set listed under Homo sapiens [2] of 93%. In addition, in [3], the half-life was 2.7 h. In addition, the outcome in the data set with Mus musculus [4] was Active. Besides, the inhibition in [5] is below 20%; in data set [6], below 20%; in [7], below 20%; in data set [11], below 30%; in [12], below 30%; in data set [13] it was below 30%. Also, the inhibition (in data set [14]; in [15]; in [16]; in the data set filed under Homo sapiens [17]; in [18]; in data set [19]) was below 30% in each case. Also, the inhibition in [20], in data set [21], in data set [22] and in [23] was below 30% throughout. Besides, the outcome in data set [8] was inactive. Further, the inhibition in vivo at 100 mg/kg in the data set on Mus musculus [9] was 55%. In addition, at 30 mg/kg the inhibition in vivo with Mus musculus [10] was 62%.
